Reference: patent US6677306B1, “Chondrogenic and osteogenic inducing molecule” (Northwestern University, priority 1998, dated 2004)
Entries after “also recorded” stand apart in the source; their conditions may differ.

Tests used:
[1] = test system: embryonic muscle fibroblasts (EMF); assay: EMF [35S]-SO4-incorporation assay (sulfate incorporation into proteoglycan); format: cell-based, rat; details: for activity in directing change in phenotype of embryonic rat muscle fibroblasts in vitro: compared with rBMP-2
Description: Embryonic Muscle Fibroblast (EMF) Tissue Culture Assay Embryonic Muscle Fibroblasts. Rat EMF cells were derived from the thigh muscles of 20 day old Sprague Dawley rat embryos for use in primary tissue culture assays using a modification of the Koskinen harvesting technique (Koskinen et al., 1985), and grown in growth media (GM) [α-Modified Eagle's Medium (αMEM , Life Technologies, Gaithersburg, Md.), containing 10% heat inactivated fetal bovine serum (FBS), 1% Penicillin/Streptomycin (P/S)] in 5% O2/95% air at 37° C. EMFs were frozen at passage 2 (P-2).
Short Term Culture and Labeling with ^35SO4—Sulfate. The EMFs were plated (day 0) at a concentration of 10^4 cells per well in a 96 well plate which had been precoated with 100 μl of a 50 μg/ml solution of type I Rat Tail Collagen (Collaborative Biomedical Products). The cells were grown for 5 days in GM. On day 5, the cells were conditioned by removing the GM and adding conditioning media (CM) (αMEM containing 0.5% FBS, 1 % P/S) for 24 hours. This media was replaced with 100 μl of fresh CM, just prior to the addition of the test factors (hour 0). Test factors were added to test wells in triplicate. PBS/0. […] 1% BSA, were used as positive controls. Four hours following the addition of factors, the cells were labeled with 1 μCi ^35S—SO4/10 μl sterile PBS/well/96 well plate for 20 hours.
Assay of ^35S Sulfate Incorporation Into Proteoglycans in the Medium. In a departure from the Koskinen et al. (1985) protocol, glycosaminoglycan synthesis was routinely determined by the measurement of incorporation of ^35S sulfate (ICM Biomedical, Costa Mesa, Calif.) into the total cetylpyridinium chloride (CPC)-precipitable materials in the media without prior papain digestion. […] The total medium from each well (˜115 μl) was placed into a 13×100 mm glass culture tube. 150 μl of 100 μg/ml Chondroitin Sulfate A Sodium Salt (Sigma, St. Louis, Mo.) at 4° C. (buffer C), was added to each tube to serve as a carrier. 500 μl of 2.0 mM MgSO4. 4° C. (buffer B), was added. The mixture was incubated in a 37° C. water bath with shaking for 30 minutes. One ml of 1% CPC in 0.02M NaCl (buffer D) was added and incubated at 37° C. for 60 minutes in the water bath.
The samples were filtered through Whatman GF/A glass microfibre filters using a Millipore 12 well filtration device. The contents of each glass tube were individually poured into one of the wells under suction. The tube and filters were washed with buffer B 3 times. The filters were allowed to dry briefly, and were transferred to a scintillation vial. Then 5 ml scintillation cocktail was added per vial and the radioactive counts were measured in the scintillation counter.
In vitro assay for chondrogenic activity: The purified recombinant proteins were tested for biological activity by the assay for enhanced incorporation of ^35S—SO4 into proteoglycan (8,11) by embryonic rat muscle fibroblasts (EMF). The EMF were seeded onto type I collagen coated 96 well plates, with an initial loading of 10^4 cell/well. The cells were grown to near confluence in alpha MEM, 10% FBS, 1% Pen/Strep in 5 days. At day 5 the growth media was replaced with conditioning media (CM), alpha MEM, 0.5% FBS, 1% Pen/Strep, and grown for an additional 24 h. Fresh CM containing the factors to be tested, was added at the concentrations noted. Four hours later, 1 μCi^35 S—SO4 in 10 μL sterile PBS was added per well, and incubation was continued for 20 h. The ^35S—SO4 incorporated into secreted proteoglycan was determined by precipitation of the proteoglycan with cetyl pyridinium chloride, as described above, followed by scintillation counting of the precipitate. The cell layer was trypsinized and the number of cells counted.

[2] = test system: quadriceps of Long-Evans rats; assay: In vivo osteogenic activity, poly(lactide)-poly(glycolide) scaffold implants in quadriceps; parameters: species or system rat; details: for mineral deposition in implants, Alizarin Red and von Kossa staining / radiograph of implants after excision, mineralization pattern / vascularization, cell infiltration and extracellular matrix in implants (H&E) / ingrowth of capillaries and extracellular matrix formation, r(A-4) versus rA4 implants: 4 weeks; for vascularization, cell infiltration and extracellular matrix in implants (H&E): FIG. 15; for activity in inducing onset of osteogenesis in muscle implants in vivo: compared with rBMP-2
Experimental: In vivo osteogenic activity. The recombinant proteins, Emdogain and controls were each included in a bioabsorbable polymer matrix implants. The implants were prepared in poly (lactide)-poly(glycolide) scaffolds by the procedure of Whang et al. (1998) with 167 μg per implant. Implants were placed in the quadriceps of the hind legs of 100 g, 4 week old, male Long-Evans rats. Each animal received a negative control implant containing 167 μg of BSA in PBS. The implants were kept in place for 28 days. The implants were removed and radiographed, then they were fixed in 4% paraformaldehyde, dehydrated in graded ethanol and embedded in paraffin. Sections (7μ thick) were cut and stained with either Von Kossa or Alizarin Red dyes, both of which can indicate the presence of mineralized deposits containing divalent cations. To assure that the stains seen were calcific deposits, serial sections were treated with 5% EGTA for 10 min before staining.

[3] = test system: embryonic rat muscle fibroblasts (EMF); assay: Cell number of EMF after exposure to factors; format: cell-based; details: after 5 days in culture, after a 24 h exposure
Experimental: In vitro assay for chondrogenic activity: The purified recombinant proteins were tested for biological activity by the assay for enhanced incorporation of ^35S—SO4 into proteoglycan (8,11) by embryonic rat muscle fibroblasts (EMF). The EMF were seeded onto type I collagen coated 96 well plates, with an initial loading of 10^4 cell/well. The cells were grown to near confluence in alpha MEM, 10% FBS, 1% Pen/Strep in 5 days. At day 5 the growth media was replaced with conditioning media (CM), alpha MEM, 0.5% FBS, 1% Pen/Strep, and grown for an additional 24 h. Fresh CM containing the factors to be tested, was added at the concentrations noted. Four hours later, 1 μCi^35 S—SO4 in 10 μL sterile PBS was added per well, and incubation was continued for 20 h. The ^35S—SO4 incorporated into secreted proteoglycan was determined by precipitation of the proteoglycan with cetyl pyridinium chloride, as described above, followed by scintillation counting of the precipitate. The cell layer was trypsinized and the number of cells counted. Incorporation is presented as counts per minute per cell ×10^3. Recombinant human BMP2 (A kind gift from the Genetics Institute, Boston, Mass.) and the bioactive crude S100 fractions from rat incisor dentin (Amar et al., 1991) and/or bovine dentin (see Example 1) were used as the positive controls. […]

Row | Molecule | activity in directing change in phenotype of embryonic rat muscle fibroblasts in vitro [1] | concentration as low as which production of 35S-SO4-labeled proteoglycan was stimulated ([1]; monolayer culture, FIG. 13) [ng/mL] | concentration as low as which production of 35S-SO4-labeled proteoglycan was stimulated (molar) ([1]; monolayer culture, FIG. 13) [pM] | alkaline phosphatase in implants ([2]; 167 μg per implant) | mineral deposition in implants, Alizarin Red and von Kossa staining ([2]; 167 μg per implant) | radiograph of implants after excision, mineralization pattern ([2]; 167 μg per implant) | vascularization, cell infiltration and extracellular matrix in implants (H&E) ([2]; 167 μg per implant) | mineral deposition in implants, Alizarin Red and von Kossa staining ([2]; 167 μg per implant, listed as (A-4)) | ingrowth of capillaries and extracellular matrix formation, r(A-4) versus rA4 implants [2] | activity in inducing onset of osteogenesis in muscle implants in vivo [2] | cell number (growth factor action) [3] | stimulation of 35S-SO4-labeled proteoglycan production at low concentrations, relative to r(A-4) ([1]; equivalent low (ng/ml) concentrations) | effect on sulfate incorporation compared with rhBMP-2 positive control ([1]; rhBMP-2 at 10 ng/ml) | mineral deposition in implants, Alizarin Red and von Kossa staining ([2]; 167 μg per implant, listed as A4)
1 | r(A-4): recombinant polypeptide SEQ ID NO:5, secreted form of rat amelogenin gene splice product, exons 2, 3, 5, 6d and 7 (MPLPPHPGSPGYINLSYEVLTPLKWYQSMIRQPPLSPILPELPLEAWPATDKTKREEVD; Recombinant rat amelogenin) | equivalent to rBMP-2 | 1 | ~140 | positive | stained strongly | heavier mineralization around the periphery | vascularized and filled with extracellular matrix; also recorded: infiltrated by many cells, and an abundant network of capillaries | highly positive for deposition of mineral | more prominent | equivalent to rBMP-2 | did not increase |  |  | 
2 | rB4: recombinant full-length rat amelogenin, exons 2, 3, 4, 5, 6 and 7 (protein, UniProt P63278 1-210, looked up, full-length) MGTWILFACLLGAAFAMPLPPHPGSPGYINLSYEKSHSQAINTDRTALVLTPLKWYQSMIRQPYPSYGYEPMGGWLHHQIIPVLSQQHPPSHTLQPHHHLPVVPAQQPVAPQQPMMPVPGHHSMTPTQHHQPNIPPSAQQPFQQPFQPQAIPPQSHQPMQPQSPLHPMQPLAPQPPLPPLFSMQPLSPILPELPLEAWPATDKTKREEVD |  |  |  |  | inactive |  |  |  |  |  |  |  |  | 
3 | rA4: recombinant polypeptide SEQ ID NO:6, secreted form of rat amelogenin gene splice product, exons 2, 3, 4, 5, 6d and 7 (protein, Recombinant rat amelogenin) MPLPPHPGSPGYINLSYEKSHSQAINTDRTALVLTPLKWYQSMIRQPPLSPILPELPLEAWPATDKTKREEVD | equivalent to rBMP-2 |  |  |  | calcified to a lesser extent | more punctate deposition of mineral | vascularized and filled with extracellular matrix; also recorded: vascularized but more sparsely than the r(A-4) implants |  | islands of capillaries, and the formation of a surrounding extracellular matrix was also evident | equivalent to rBMP-2 | increase | less active | quite comparable | some focal deposits of mineral
